Measured values from ChEMBL document CHEMBL1136220, “Synthesis and cytotoxic activity of A-ring modified betulinic acid derivatives” (2003).
In brackets after ≈: the same amount, converted by molar mass.

Assays:
Type in all cases: functional
A549 = assay: Cytotoxic activity towards A-549 cells; settings: Homo sapiens, read-out: ED50 (the source's name)
B16-F10 = assay: Cytotoxic activity towards B16-F10 cells; settings: Mus musculus, read-out: ED50 (the source's name)
SK-MEL-2 = assay: Cytotoxic activity towards M2 cells (SK-MEL-2); settings: Homo sapiens, read-out: ED50 (the source's name)

Compound	EC50 (A549) [µg/mL]	EC50 (B16-F10) [µg/mL]	EC50 (SK-MEL-2) [µg/mL]
COC(=O)[C@]12CC[C@@H](C(C)C)C1C1CCC3[C@]4(C)C(CC[C@@]3(C)[C@]1(C)CC2)C(C)(C)C(=O)[C@@H]1O[C@@H]14 (stereo not given in full)	> 30	> 30	> 30
CC(C)[C@@H]1CC[C@]2(C(=O)O)CC[C@]3(C)C(CC[C@@H]4[C@@]5(C)C=CC(=O)C(C)(C)C5CC[C@]43C)C12 (stereo not given in full)	2.89 (≈ 6.36 µM)	1.75 (≈ 3.85 µM)	2.29 (≈ 5.04 µM)
CC(C)[C@@H]1CC[C@]2(C(=O)O)CC[C@]3(C)C(CC[C@@H]4[C@@]5(C)CC(C=O)=C(O)C(C)(C)C5CC[C@]43C)C12 (stereo not given in full)	2.2 (≈ 4.54 µM)	1.66 (≈ 3.42 µM)	3.76 (≈ 7.76 µM)
COC(=O)[C@]12CC[C@@H](C(C)C)C1C1CC[C@@H]3[C@@]4(C)C=CC(=O)C(C)(C)C4CC[C@@]3(C)[C@]1(C)CC2 (stereo not given in full)	> 30	> 30	> 30
C=C(C)[C@@H]1CC[C@]2(C(=O)OC)CC[C@]3(C)C(CC[C@@H]4[C@@]5(C)CC(C=O)=C(O)C(C)(C)C5CC[C@]43C)C12 (stereo not given in full)	> 30	> 30	> 30
C=C(C)[C@@H]1CC[C@]2(C(=O)OC)CC[C@]3(C)C(CC[C@@H]4[C@@]5(C)C=C(C#N)C(=O)C(C)(C)C5CC[C@]43C)C12 (stereo not given in full)	4.55 (≈ 9.25 µM)	3.57 (≈ 7.26 µM)	2.12 (≈ 4.31 µM)
COC(=O)[C@]12CC[C@@H](C(C)C)C1C1CC[C@@H]3[C@@]4(C)Cc5cnoc5C(C)(C)C4CC[C@@]3(C)[C@]1(C)CC2 (stereo not given in full)	> 30	> 30	> 30
C=C(C)[C@@H]1CC[C@]2(C(=O)O)CC[C@]3(C)C(CC[C@@H]4[C@@]5(C)CC(C=O)=C(O)C(C)(C)C5CC[C@]43C)C12 (stereo not given in full)	2.76 (≈ 5.72 µM)	> 30	> 30
CC(C)[C@@H]1CC[C@]2(C(=O)O)CC[C@]3(C)C(CC[C@@H]4[C@@]5(C)Cc6cnoc6C(C)(C)C5CC[C@]43C)C12 (stereo not given in full)	2.7 (≈ 5.6 µM)	1.57 (≈ 3.26 µM)	1.15 (≈ 2.39 µM)
COC(=O)[C@]12CC[C@@H](C(C)C)C1C1CC[C@@H]3[C@@]4(C)C=C(C=O)C(=O)C(C)(C)C4CC[C@@]3(C)[C@]1(C)CC2 (stereo not given in full)	0.31 (≈ 0.624 µM)	0.29 (≈ 0.584 µM)	0.73 (≈ 1.47 µM)
CC(C)[C@@H]1CC[C@]2(C(=O)O)CC[C@]3(C)C(CC[C@@H]4[C@@]5(C)C=C(Cl)C(=O)C(C)(C)C5CC[C@]43C)C12 (stereo not given in full)	1.01 (≈ 2.06 µM)	1.55 (≈ 3.17 µM)	0.13 (≈ 0.266 µM)
CC(C)[C@@H]1CC[C@]2(C(=O)O)CC[C@]3(C)C(CC[C@@H]4[C@@]5(C)C=C(C#N)C(=O)C(C)(C)C5CC[C@]43C)C12 (stereo not given in full)	1.32 (≈ 2.75 µM)	1.43 (≈ 2.98 µM)	0.81 (≈ 1.69 µM)
COC(=O)[C@]12CC[C@@H](C(C)C)C1C1CC[C@@H]3[C@@]4(C)C=C(OC)C(=O)C(C)(C)C4CC[C@@]3(C)[C@]1(C)CC2 (stereo not given in full)	> 30	> 30	> 30
COC(=O)[C@]12CC[C@@H](C(C)C)C1C1CC[C@@H]3[C@@]4(C)C=C(C#N)C(=O)C(C)(C)C4CC[C@@]3(C)[C@]1(C)CC2 (stereo not given in full)	13 (≈ 26.3 µM)	0.8 (≈ 1.62 µM)	1.25 (≈ 2.53 µM)
C=C(C)[C@@H]1CC[C@]2(C(=O)O)CC[C@]3(C)C(CC[C@@H]4[C@@]5(C)Cc6cnoc6C(C)(C)C5CC[C@]43C)C12 (stereo not given in full)	1.54 (≈ 3.21 µM)	3.11 (≈ 6.48 µM)	16.6 (≈ 34.6 µM)
C=C(C)[C@@H]1CC[C@]2(C(=O)OC)CC[C@]3(C)C(CC[C@@H]4[C@@]5(C)Cc6cnoc6C(C)(C)C5CC[C@]43C)C12 (stereo not given in full)	> 30	> 30	> 30
CC(C)[C@@H]1CC[C@]2(C(=O)O)CC[C@]3(C)C(CC[C@@H]4[C@@]5(C)C=C(C=O)C(=O)C(C)(C)C5CC[C@]43C)C12 (stereo not given in full)	0.17 (≈ 0.352 µM)	0.3 (≈ 0.621 µM)	0.26 (≈ 0.539 µM)
COC(=O)[C@]12CC[C@@H](C(C)C)C1C1CC[C@@H]3[C@@]4(C)CC(C=O)=C(O)C(C)(C)C4CC[C@@]3(C)[C@]1(C)CC2 (stereo not given in full)	> 30	> 30	> 30
COC(=O)[C@]12CC[C@@H](C(C)C)C1C1CC[C@@H]3[C@@]4(C)C=C(Cl)C(=O)C(C)(C)C4CC[C@@]3(C)[C@]1(C)CC2 (stereo not given in full)	> 30	> 30	> 30
C=C(C)[C@@H]1CC[C@]2(C(=O)O)CC[C@]3(C)[C@H](CC[C@@H]4[C@@]5(C)CC[C@H](O)C(C)(C)[C@@H]5CC[C@]43C)[C@@H]12 [BETULINIC ACID]	7.7 (≈ 16.9 µM)	4.98 (≈ 10.9 µM)	7.62 (≈ 16.7 µM)
